Test: osmotic coefficient (dimensionless); mn = molality of the nth substance listed, in mol/kg
Settings: 298.15 K, Liquid, isopiestic method

CCCC[N+](CC)(CC)CC.[I-] [butyltriethylammonium iodide] + O
Settings	osmotic coefficient
m1 = 0.0475	0.9775
m1 = 0.0571	0.9735
m1 = 0.076	0.9668
m1 = 0.0898	0.9582
m1 = 0.0991	0.9545
m1 = 0.1499	0.94
m1 = 0.1571	0.93
m1 = 0.1638	0.9298
m1 = 0.1729	0.9266
m1 = 0.189	0.9199
m1 = 0.2281	0.9038
m1 = 0.293	0.8831
m1 = 0.3288	0.8677
m1 = 0.38	0.8544
m1 = 0.4288	0.837
m1 = 0.435	0.834
m1 = 0.4582	0.824
m1 = 0.5067	0.795
m1 = 0.5888	0.77
m1 = 0.7326	0.708
m1 = 0.7462	0.695
m1 = 0.76	0.691
m1 = 0.855	0.655
m1 = 0.9926	0.606
m1 = 1.093	0.569
m1 = 1.132	0.562
m1 = 1.178	0.554
m1 = 1.305	0.523
m1 = 1.503	0.481
m1 = 1.645	0.456
m1 = 1.681	0.45
m1 = 1.738	0.439
m1 = 1.782	0.433
m1 = 1.811	0.428

CCCCCCC[N+](CC)(CC)CC.[I-] [heptyltriethylammonium iodide] + O
Settings	osmotic coefficient
m1 = 0.0575	0.8694
m1 = 0.077	0.84
m1 = 0.0876	0.829
m1 = 0.1022	0.815
m1 = 0.1082	0.805
m1 = 0.1205	0.787
m1 = 0.1533	0.757
m1 = 0.1727	0.742
m1 = 0.175	0.736
m1 = 0.1805	0.723
m1 = 0.2592	0.67
m1 = 0.2917	0.642
m1 = 0.3136	0.635
m1 = 0.3583	0.614
m1 = 0.4282	0.58
m1 = 0.4477	0.577
m1 = 0.4858	0.553
m1 = 0.5029	0.548
m1 = 0.5121	0.54
m1 = 0.5894	0.52
m1 = 0.6973	0.486
m1 = 0.787	0.45
m1 = 0.8401	0.434
m1 = 0.89	0.427
m1 = 1.105	0.384
m1 = 1.341	0.34
m1 = 1.504	0.325
m1 = 1.803	0.297
m1 = 1.921	0.289
m1 = 2.205	0.263
m1 = 2.515	0.253
m1 = 2.79	0.247
m1 = 2.96	0.24
m1 = 3	0.242

CCCCCC[N+](CC)(CC)CC.[I-] [hexyltriethylammonium iodide] + O
Settings	osmotic coefficient
m1 = 0.0542	0.9221
m1 = 0.0712	0.9085
m1 = 0.0797	0.9098
m1 = 0.0926	0.8987
m1 = 0.0971	0.8963
m1 = 0.107	0.8864
m1 = 0.1332	0.8718
m1 = 0.1502	0.8528
m1 = 0.1517	0.8493
m1 = 0.153	0.8537
m1 = 0.2121	0.819
m1 = 0.232	0.808
m1 = 0.2494	0.798
m1 = 0.2836	0.775
m1 = 0.3308	0.751
m1 = 0.3473	0.744
m1 = 0.3651	0.737
m1 = 0.3804	0.724
m1 = 0.3878	0.713
m1 = 0.4518	0.678
m1 = 0.5224	0.648
m1 = 0.5588	0.633
m1 = 0.5839	0.624
m1 = 0.6237	0.609
m1 = 0.7289	0.582
m1 = 0.8228	0.555
m1 = 0.9203	0.531
m1 = 1.101	0.487
m1 = 1.171	0.475
m1 = 1.275	0.454
m1 = 1.512	0.421
m1 = 1.84	0.375
m1 = 1.94	0.366
m1 = 2.04	0.356
m1 = 2.24	0.337
m1 = 2.344	0.329

CC[N+](C)(CC)CC.[I-] [methyltriethylammonium iodide] + O
Settings	osmotic coefficient
m1 = 0.0478	0.739
m1 = 0.0576	0.714
m1 = 0.0766	0.673
m1 = 0.0902	0.648
m1 = 0.0995	0.632
m1 = 0.1505	0.564
m1 = 0.1558	0.556
m1 = 0.1631	0.548
m1 = 0.1721	0.539
m1 = 0.1879	0.523
m1 = 0.2254	0.488
m1 = 0.2898	0.44
m1 = 0.324	0.421
m1 = 0.3742	0.391
m1 = 0.4177	0.371
m1 = 0.4237	0.368
m1 = 0.4447	0.36
m1 = 0.4801	0.347
m1 = 0.5528	0.321
m1 = 0.6505	0.294
m1 = 0.6561	0.295
m1 = 0.6693	0.291
m1 = 0.7286	0.28
m1 = 0.8032	0.265
m1 = 0.8482	0.259
m1 = 0.8851	0.255
m1 = 0.9205	0.249
m1 = 0.9981	0.241
m1 = 1.101	0.232
m1 = 1.2	0.226
m1 = 1.22	0.224
m1 = 1.25	0.223
m1 = 1.29	0.22
m1 = 1.37	0.219

CCCCC[N+](CC)(CC)CC.[I-] [pentyltriethylammonium iodide] + O
Settings	osmotic coefficient
m1 = 0.0539	0.9283
m1 = 0.0703	0.9203
m1 = 0.0798	0.9092
m1 = 0.0922	0.903
m1 = 0.0976	0.8923
m1 = 0.1065	0.891
m1 = 0.132	0.8799
m1 = 0.1471	0.8712
m1 = 0.1482	0.8694
m1 = 0.1501	0.8697
m1 = 0.2076	0.8364
m1 = 0.2284	0.821
m1 = 0.2454	0.811
m1 = 0.2742	0.802
m1 = 0.3148	0.789
m1 = 0.3295	0.784
m1 = 0.3456	0.778
m1 = 0.3579	0.77
m1 = 0.3614	0.765
m1 = 0.4108	0.746
m1 = 0.4718	0.718
m1 = 0.498	0.711
m1 = 0.514	0.709
m1 = 0.5434	0.699
m1 = 0.6238	0.68
m1 = 0.6938	0.658
m1 = 0.7814	0.625
m1 = 0.9005	0.595
m1 = 0.9578	0.58
m1 = 1.015	0.571
m1 = 1.199	0.531
m1 = 1.359	0.508
m1 = 1.465	0.485
m1 = 1.549	0.468
m1 = 1.688	0.447

CC[N+](CC)(CC)CC.[I-] [tetraethylammonium iodide] + O
Settings	osmotic coefficient
m1 = 0.0519	0.8954
m1 = 0.0633	0.8781
m1 = 0.086	0.8544
m1 = 0.1019	0.8443
m1 = 0.1134	0.834
m1 = 0.1748	0.806
m1 = 0.1826	0.8
m1 = 0.1916	0.795
m1 = 0.2018	0.794
m1 = 0.2218	0.784
m1 = 0.2718	0.758
m1 = 0.3586	0.722
m1 = 0.3999	0.714
m1 = 0.4738	0.685
m1 = 0.5329	0.674
m1 = 0.5415	0.67
m1 = 0.5698	0.662
m1 = 0.6153	0.655
m1 = 0.7181	0.631
m1 = 0.8456	0.613
m1 = 0.8512	0.609
m1 = 0.8671	0.606
m1 = 0.9377	0.597
m1 = 1.032	0.583
m1 = 1.076	0.578
m1 = 1.109	0.574
m1 = 1.151	0.566
m1 = 1.224	0.558
m1 = 1.309	0.553
m1 = 1.373	0.546
m1 = 1.391	0.543
m1 = 1.403	0.544
m1 = 1.429	0.54
m1 = 1.442	0.537

CC[N+](CC)(CC)C(C)C.[I-] [triethylisopropylammonium iodide] + O
Settings	osmotic coefficient
m1 = 0.0475	0.9777
m1 = 0.057	0.9749
m1 = 0.0757	0.9713
m1 = 0.0889	0.968
m1 = 0.0981	0.9643
m1 = 0.1471	0.9579
m1 = 0.1528	0.9563
m1 = 0.1597	0.9537
m1 = 0.1682	0.9525
m1 = 0.1838	0.9459
m1 = 0.2194	0.9398
m1 = 0.2793	0.9267
m1 = 0.3108	0.918
m1 = 0.3581	0.9067
m1 = 0.408	0.88
m1 = 0.4103	0.884
m1 = 0.4322	0.8735
m1 = 0.4691	0.8589
m1 = 0.5492	0.825
m1 = 0.6807	0.762
m1 = 0.6907	0.751
m1 = 0.7103	0.74
m1 = 0.8103	0.691
m1 = 0.9083	0.662
m1 = 0.9858	0.631
m1 = 1.081	0.589
m1 = 1.111	0.587
m1 = 1.22	0.559
m1 = 1.326	0.546
m1 = 1.388	0.541
m1 = 1.402	0.539
m1 = 1.428	0.535
m1 = 1.448	0.533
m1 = 1.462	0.53

Source: the NIST ThermoML archive (doi:10.1016/j.fluid.2006.09.025)
